Several values for one entry are separate records, joined by “and”; a condition that tells them apart may be missing. Identical values can stand only once.
Legend:
human ACKR3 = molecular target: T1, human ACKR3 (Homo sapiens, UniProt P25106); assay: ACKR3 β-Arrestin recruitment assay (NanoLuc complementation, NanoBiT) in HEK293T cells; assay type: cell-based; conditions: for EC50: ACKR3, HEK293T cells, average value of three independent experiments
T1 construct: expressed in transfected cells; host or cells: HEK293T
T1 sequence (P25106 whole entry): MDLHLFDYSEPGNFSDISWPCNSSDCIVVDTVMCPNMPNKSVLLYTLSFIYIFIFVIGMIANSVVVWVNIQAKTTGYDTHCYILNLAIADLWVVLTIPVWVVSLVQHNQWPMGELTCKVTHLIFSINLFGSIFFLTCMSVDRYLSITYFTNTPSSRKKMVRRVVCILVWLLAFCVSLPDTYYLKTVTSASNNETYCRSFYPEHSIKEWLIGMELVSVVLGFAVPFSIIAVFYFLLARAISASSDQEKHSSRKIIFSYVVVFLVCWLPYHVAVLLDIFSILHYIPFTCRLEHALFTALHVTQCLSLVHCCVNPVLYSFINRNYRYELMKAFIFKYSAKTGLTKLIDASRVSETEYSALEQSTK
T1 sequence (P49407 whole entry partner): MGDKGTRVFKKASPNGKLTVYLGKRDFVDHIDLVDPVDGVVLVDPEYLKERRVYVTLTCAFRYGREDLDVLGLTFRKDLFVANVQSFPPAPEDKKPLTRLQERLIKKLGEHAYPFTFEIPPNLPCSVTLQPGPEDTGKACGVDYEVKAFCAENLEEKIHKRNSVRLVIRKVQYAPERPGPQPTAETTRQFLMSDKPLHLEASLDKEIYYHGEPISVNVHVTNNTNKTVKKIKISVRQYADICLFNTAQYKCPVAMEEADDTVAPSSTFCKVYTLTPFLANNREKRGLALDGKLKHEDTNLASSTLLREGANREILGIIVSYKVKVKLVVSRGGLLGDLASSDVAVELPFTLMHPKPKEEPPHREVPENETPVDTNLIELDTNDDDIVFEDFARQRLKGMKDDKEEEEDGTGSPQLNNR
Procedure: ACKR3 β-Arrestin Recruitment Assay. […] T.; Encell, L. P.; Wood, K. V. Nanoluc complementation reporter optimized for accurate measurement of protein interactions in cells. […] B.; Reynders, N.; Vanderplasschen, A.; Ollert, M.; Bouvier, M.; Szpakowska, M.; Chevigné, A. Proadrenomedullin n-terminal 20 peptides (pamps) are agonists of the chemokine scavenger receptor ACKR3/CXCR7. […] The prepared cells were then treated with compounds at concentrations ranging from 0.3 nM to 100 µM. Induction of β-Arrestin recruitment to receptors was evaluated by measuring bioluminescence with a Mithras LB940 luminometer (Berthold Technologies).
All curves were fitted to data points generated from the mean of at least three independent experiments. Results with values of p < 0.05 were considered statistically significant.

HEK293 cells = assay: RealTime-Glo MT cell viability assay; assay type: cell-based; conditions: concentrations of 1 µM and below, up to 72 h
Procedure: Cell viability studies. […].
Cell Viability Assay. RealTime-Glo™ MT Cell Viability Assay (Promega Corporation, Madison, WI, USA) was performed using THP1 cells and HEK293 cells as indicated in the manufacturer's manual to measure a compound's cytotoxicity on cells. In brief, in a white solid-bottom 96-well plate cells (5x10^3/well) were seeded and incubated with the respective compounds diluted in DMEM (Gibco, Carlsbad, CA, USA). After cell seeding viability reagent is added. Subsequently, cells were incubated with the compound and viability reagent containing medium at 37 °C, 5% CO2 for 72 h. The luminescence signal was determined after 1, 24, 48, and 72 hours on a GloMax®-Multi Detection System plate reader (Promega Corporation, Madison, Wl, USA).

platelets [1] = assay: Light transmission platelet aggregation experiments; assay type: cell-based; conditions: preincubation with 100 µM ACKR3 agonist, activation with 2.5 µM ADP; compared to the control
Procedure: Platelet aggregation studies. To further evaluate the compounds inhibitory potential of platelet aggregation, aggregation experiments were conducted.
Aggregation experiments. For the light transmission aggregation experiments, citrate anticoagulated blood from healthy donors was used. To obtain platelet-rich plasma, whole blood was centrifuged at 210 × g for 20 min at room temperature. 1 × 10^8 platelets were preincubated with 100 µM ACKR3 agonist for 15 min at 37°C. Subsequently, platelets were activated with 2.5 µM ADP and aggregation was analyzed for 5 min at 1,000 rpm and 37°C using a light transmission aggregometer (Aggregometer 490-X; Chrono-Log Corp., Havertown, Pennsylvania, United States). Maximum platelet aggregation and the area under the curve were quantified using Aggrolink8 software (Chrono-Log Corp., Havertown, Pennsylvania, United States).

Kinetic solubility assay = assay type: physicochemical; conditions: for solubility: PBS buffer with 1% DMSO, 4 °C, aqueous buffer, kinetic from dmso stock, 1% DMSO, 99% PBS buffer (pH 7.4); for Solubility (in words): mixture 1 vol.% DMSO and 99 vol.% PBS buffer
Procedure: Solubility Assay. A 100 mL flask with phosphate-buffered saline was prepared from NaCl, KCI, Na2HPO4, KH2PO4, and distilled water. The buffer was adjusted to pH 7.4 with HCl. Afterwards, 10mM stock solutions of compounds in DMSO were prepared. 10 µL compound stock solution was added to 990 µL PBS in Eppendorf tubes. As a reference, 10 µL compound stock solution was added to 990 µL HPLC-grade MeOH in Eppendorf tubes. All tubes were centrifuged (16000 relative centrifugal force, 4 °C, 20 min). Subsequently, 600 µL supernatant was extracted carefully and filled into HPLC vials. […] Compounds solubility was calculated by AUC of compound in PBS divided by AUC of reference solution multiplied by concentration of the compound in solution.

platelets [2] = assay: Flow cytometry assay of platelet degranulation (P-Selectin surface expression in PRP); assay type: cell-based, human; conditions: PRP pre-incubated with compound (100 µM), then CRP-XL (1 µg/mL); % ±SEM normalized to CRP-XL-treated vehicle PRP
Procedure: Platelet Degranulation Studies of Derivatives. Concurrent with the β-Arrestin recruitment potency optimization, the compounds were also tested and developed according to their functional activity. To determine the ability of a compound to modulate platelets, P-Selectin surface expression was measured. P-Selectin is a surface protein involved in cell adhesion mechanisms and can be found on activated platelets. After induction of platelet aggregation in platelet-rich plasma (PRP), treatment with the respective compound should therefore lead to a significant reduction in P-Selectin expression. […]. […]. Similarly, platelet degranulation potency was highly sensitive toward "linker"-changes (Structure C, Table 1). A distinct trend could not be registered. […]. Flow Cytometry Assay. The inhibition of platelet degranulation was determined via flow cytometry experiments. Platelets were treated with collagen-related peptide (CRP-XL, CambCol Laboratories, Cambridge, UK) and the platelets' activation state was determined (Geue, S.; Aurbach, K.; Manke, M.-C.; Manukjan, G.; Münzer, P.; Stegner, D.; Brähler, C.; Walker-Allgaier, B.; Märklin, M.; Borst, C. E.; Quintanilla-Fend, L.; Rath, D.; Geisler, T.; Salih, H. R.; Seizer, P.; Lang, F.; Nieswandt, B.; Gawaz, M.; Schulze, H.; Pleines, I.; Borst, O. Pivotal role of pdk1 in megakaryocyte cytoskeletal dynamics and polarization during platelet biogenesis. Blood 2019, 134, 1847-1858; and Malehmir, M.; Pfister, D.; Gallage, S.; Szydlowska, M.; Inverso, D.; Kotsiliti, E.; Leone, V.; Peiseler, M.; Surewaard, B. G. J.; Rath, D.; Ali, A.; Wolf, M. J.; Drescher, H.; Healy, M. E.; Dauch, D.; Kroy, D.; Krenkel, O.; Kohlhepp, M.; Engleitner, T.; Olkus, A.; Sijmonsma, T.; Volz, J.; Deppermann, C.; Stegner, D.; Helbling, P.; Nombela-Arrieta, C.; Rafiei, A.; Hinterleitner, M.; Rail, M.; Baku, F.; Borst, O.; Wilson, C. L.; Leslie, J.; O'Connor, T.; Wes-ton, C. J.; Chauhan, A.; Adams, D. H.; Sheriff, L.; Teijeiro, A.; Prinz, M.; Bogeska, R.; An-stee, N.; Bongers, M. N.; Notohamiprodjo, M.; Geisler, T.; Withers, D. J.; Ware, J.; Mann, D. A.; Augustin, H. G.; Vegiopoulos, A.; Milsom, M. D.; Rose, A. J.; Lalor, P. F.; Llovet, J. M.; Pinyol, R.; Tacke, F.; Rad, R.; Matter, M.; Djouder, N.; Kubes, P.; Knolle, P. A.; Unger, K.; Zender, L.; Nieswandt, B.; Gawaz, M.; Weber, A.; Heikenwalder, M. Platelet gpibα is a mediator and potential interventional target for nash and subsequent liver cancer. Nat. Med. 2019, 25, 641-655). Briefly, PRP was isolated from peripheral human blood collected in citrate-phosphate-dextrose solution with adenine (CPDA) and diluted with phosphate-buffered saline (PBS) (Sigma Aldrich Co., Ltd., St. Luis, Missouri, USA) supplemented with CaCl2 and MgCl2. PRP (106 platelets /sample) was preincubated with the respective compound (100 µM) for 15 min. Samples were treated with 1 µg/ml CRP-XL (CambCol Laboratories, Cambridge, UK) for 30 min at room temperature in the presence of the respective fluorochrome-conjugated antibody against P-Selectin (CD62P-FITC; Beckman Coulter, Brea, CA, USA). Subsequently, samples were fixed in 0.5% paraformaldehyde and analyzed on a FACS-Calibur flow cytometer (FACS-Caliber flow cytometer, Becton-Dickinson, East Rutherford, NJ, USA). Mean fluorescence intensity (MFI) was used as a quantitative measurement of platelet surface expression.

[3] = Metabolic stability assay in human liver microsomes; assay type: in vitro ADME
Procedure: (§1) Metabolic Stability Assay. Pooled liver microsomes from mice (male) and humans (male) were purchased from Sekisui XenoTech, LLC, Kansas City, KS, USA. Metabolic stability assays were performed in the presence of an NADPH-regenerating system consisting of 5 mM glucose-6-phosphate, 5 U/mL glucose-6-phosphate dehydrogenase, and 1 mM NADP^+. Liver microsomes (20 mg/mL), NADPH-regenerating system, and 4 mM MgCl2·6 H2O in 0.1 M TRIS-HCl-buffer (pH 7.4) were preincubated for 5 min at 37 °C and 750 rpm on a shaker. The reaction was started by adding the preheated compound at 10 mM resulting in a final concentration of 0.1 mM. […] The samples were vortexed for 30 s and centrifuged (21910 relative centrifugal force, 4 °C, 20 min). The supernatant was used directly for LC-MS analysis.
(§2) All compound incubations were conducted at least in triplicates. Additionally, a negative control containing BSA (20 mg/mL) instead of liver microsomes and a positive control using Verapamil instead of the compound was performed. A limit of 1% organic solvent during incubation was not exceeded. […]

[4] = Metabolic stability assay in mouse liver microsomes; assay type: in vitro ADME; conditions: after 60 min
Procedure: as §1, §2

[5] = average of three independent experiments ± SEM

Row | Compound | EC50 (human ACKR3) [nM] | cell toxicity / tolerability (in words) (HEK293 cells) | platelet aggregation (in words) (platelets [1]) | solubility (Kinetic solubility assay) [µg/mL] | solubility (Kinetic solubility assay; [5]) [µM] | P-Selectin expression reduction (platelets [2]) | Solubility (in words) (Kinetic solubility assay) | compound remained ([3]; 60 min) | metabolic stability (in words) ([3]; over the course of 60 min) | compound remained [4] | Efficacy (Emax) vs CXCL12 (human ACKR3; efficacy of CXCL12 at 300 nM set as 100%, average of three independent experiments) [%]
1 | CCN(CCCNC(=O)c1ccc(-c2ccccc2)s1)Cc1ccccc1 [Compound 23, N-(3-(benzyl(ethyl)amino)propyl)-5-phenylthiophene-2-carboxamide] | 111 | tolerated well | highest potency for platelet aggregation inhibition | 30 | 75 ± 1 |  |  |  |  |  | 
2 | CCCN(CCCNC(=O)c1ccc(-c2ccccc2)s1)Cc1ccccc1 [Compound 26, N-(3-(benzyl(propyl)amino)propyl)-5-phenylthiophene-2-carboxamide] |  |  |  |  |  | 76±7% | good solubility |  |  |  | 
3 | CCCCN(CCCNC(=O)c1ccc(-c2ccccc2)s1)Cc1ccccc1 [Compound 27, N-(3-(benzyl(butyl)amino)propyl)-5-phenylthiophene-2-carboxamide] |  | tolerated well |  | 10 | 28 ± 4 | 77% and 77±6% |  | Around 69% | stable | around 24% | 
4 | O=C(NCCCN(CCCc1ccccc1)Cc1ccccc1)c1ccc(-c2ccccc2)s1 [Compound 30, N-(3-(benzyl(3-phenylpropyl)amino)propyl)-5-phenylthiophene-2-carboxamide] | 1060 |  |  |  |  | 1±5% | good solubility |  |  |  | 
5 | COc1cc(C(=O)N(CCC2CCCN2C)C/C(C)=C/c2ccccc2F)cc(OC)c1OC (stereo not drawn) [VUF11207, reference compound] | 43.6 |  | reduction of platelet aggregation |  |  | 65% and 65±6% |  |  |  |  | 95

Reference: EP4620949A1, “ACKR3 MODULATORS FOR CARDIOVASCULAR OR ANTIPLATELET THERAPY” (Eberhard Karls Universität Tübingen (Medizinische Fakultät), priority 2024, dated 2025)
